Laboratory results from patent US20250026748A1, “N-(5-SUBSTITUTED-[(1,3,4-THIADIAZOLYL) OR (THIAZOLYL)])(SUBSTITUTED)CARBOXAMIDE COMPOUNDS AND USE THEREOF FOR INHIBITING HUMAN POLYMERASE THETA” (Repare Therapeutics Inc., priority 2021, published 2025).

biological target: PolQ ATPase enzyme (1-894) (Homo sapiens (Human), UniProt O75417); experiment: Polθ ATPase enzymatic assay (0.5 nM enzyme concentration), ADP-Glo; format: biochemical; conditions: average IC50; 0.5 nM PolQ ATPase enzyme (1-894)
Sequence (O75417 1-894): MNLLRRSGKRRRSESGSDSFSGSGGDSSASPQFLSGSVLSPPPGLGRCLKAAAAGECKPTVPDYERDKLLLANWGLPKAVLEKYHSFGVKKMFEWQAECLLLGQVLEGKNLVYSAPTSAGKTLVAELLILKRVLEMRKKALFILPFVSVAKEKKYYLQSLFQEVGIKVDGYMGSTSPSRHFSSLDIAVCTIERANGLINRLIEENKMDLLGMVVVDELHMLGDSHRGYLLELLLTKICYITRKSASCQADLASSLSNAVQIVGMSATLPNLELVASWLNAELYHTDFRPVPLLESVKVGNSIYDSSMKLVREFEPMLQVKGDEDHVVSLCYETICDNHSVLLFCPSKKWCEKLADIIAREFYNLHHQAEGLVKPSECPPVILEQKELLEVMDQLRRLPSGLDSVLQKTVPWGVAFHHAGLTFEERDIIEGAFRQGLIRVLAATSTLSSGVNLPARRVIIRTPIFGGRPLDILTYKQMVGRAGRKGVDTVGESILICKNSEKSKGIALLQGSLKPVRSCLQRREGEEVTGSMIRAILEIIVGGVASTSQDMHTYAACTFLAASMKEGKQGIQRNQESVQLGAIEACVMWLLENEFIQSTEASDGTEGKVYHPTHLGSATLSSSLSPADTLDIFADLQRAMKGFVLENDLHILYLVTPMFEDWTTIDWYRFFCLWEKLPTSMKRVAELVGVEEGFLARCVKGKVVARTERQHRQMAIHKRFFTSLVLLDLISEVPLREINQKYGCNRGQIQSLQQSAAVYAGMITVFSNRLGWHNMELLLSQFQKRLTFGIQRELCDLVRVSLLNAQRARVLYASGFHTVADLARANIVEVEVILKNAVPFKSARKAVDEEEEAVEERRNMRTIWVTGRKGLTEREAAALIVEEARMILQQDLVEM
In short: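 Enzyme (0.5 nM) pre-incubated 15 min at rt with 10-point inhibitor series in 50 mM Tris pH 7.5, 10% glycerol, 5 mM DTT, 10 mM MgCl2, 0.1 mg/ml BSA; reaction started with 20 nM fork DNA and 100 μM ATP, run 180 min at rt. ADP-Glo luminescence; IC50 from 4-parameter variable-slope fit.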

| IC50 [nM] | SMILES |
| --- | --- |
| 0.29 | COc1cnc(Cl)cc1-c1cc(N(C)C(C)=O)ccc1C(=O)Nc1nnc(C#CC2CC2)s1 [Compound 294] |
| 0.36 | COc1cnc(Cl)cc1-c1cn(CC(=O)N(C)C)c(=O)cc1C(=O)Nc1nnc(C#CC2CC2)s1 [Compound 99] |
| 1.6 | COc1cnc(C(F)F)cc1-c1cc(CN2CCN(C)C2=O)ccc1C(=O)Nc1nnc(C#CC2CC2)s1 [Compound 231] |
| 15 | COc1cnc(C(F)F)cc1-c1cc(N2CCCC2=O)ncc1C(=O)Nc1ncc(C#CC2CC2)s1 [Compound 191] |
| 3 | COc1cnc(C(F)F)cc1-c1cc(N2CCN(C(C)=O)CC2)ccc1C(=O)Nc1nnc(C#CC2CC2)s1 [Compound 366] |
| < 0.25 | COC(=O)N1CCN(c2ccc(C(=O)Nc3nnc(C#CC4CC4)s3)c(-c3cc(C(F)F)ncc3OC)c2)C(=O)C1 [Compound 123] |
| < 0.25 | COc1cnc(C(F)F)cc1-c1cc(-c2nc(C)co2)ncc1C(=O)Nc1nnc(C#CC2CC2)s1 [Compound 430] |
| 1.9 | COc1cnc(C(F)F)cc1-c1cc(C2C[C@@H]2C(=O)N(C)C)ncc1C(=O)Nc1nnc(C#CC2CC2)s1 (stereo partly shown) [Compound 361] |
| 11 | COc1cnc(C(F)F)cc1-c1cc(N2CC(C)(C)CC2=O)ncc1C(=O)Nc1nnc(C#CC2CC2)s1 [Compound 380] |
| 1.2 | CNC(=O)Cn1cc(-c2cc(C(F)(F)F)cnc2OC)c(C(=O)Nc2nnc(C#CC3CC3)s2)cc1=O [Compound 89] |
| 0.37 | COc1cnc(C(F)F)cc1-c1cc(-c2ccn(C)c2)ncc1C(=O)Nc1nnc(C#CC2CC2)s1 [Compound 411] |
| 0.45 | COc1cnc(C(F)F)cc1-c1cc(C#CC(C)(C)C#N)ncc1C(=O)Nc1nnc(C#CC2CC2)s1 [Compound 184] |
| < 0.25 | COc1ccc(C(F)(F)F)cc1-c1cc(C#CC(C)O)ncc1C(=O)Nc1nnc(C#CC2CC2)s1 (stereo not shown) [Compound 248] |
| 8.4 | COc1ccc(C(F)(F)F)cc1-c1cn(C)c(=O)cc1C(=O)Nc1nnc(C#CC2COC2)s1 [Compound 343] |
| 2.9 | COc1cnc(C(F)F)cc1-c1cc(C2CC2)ncc1C(=O)Nc1nnc(C#CC2CC2)s1 [Compound 247] |
| 18 | COc1cnc(C(F)F)cc1-c1cc(N2CCOCC2)ccc1C(=O)Nc1nnc(C#CC2CC2)s1 [Compound 239] |
| 2.4 | COc1ncc(C(F)(F)F)cc1-c1cnccc1C(=O)Nc1nnc(C#Cc2cc(C)[nH]n2)s1 [Compound 88] |
| 3.6 | COc1cnc(C(F)F)cc1-c1cc(C#CC2(O)CCS(=O)(=O)CC2)ccc1C(=O)Nc1ncc(C#CC2CC2)s1 [Compound 238] |
| 0.35 | [2H]C([2H])([2H])N(C(=O)C1CC(C)(O)C1)c1ccc(C(=O)Nc2nnc(C#CC3CC3)s2)c(-c2cc(C(F)F)ncc2OC)c1 (stereo not shown) [Compound 224] |
| 0.47 | COc1cnc(Cl)cc1-c1cn(CC(N)=O)c(=O)cc1C(=O)Nc1nnc(C#CC2CC2)s1 [Compound 105] |
| < 0.25 | COc1cnc(C(F)F)cc1-c1cc(N(C)C(=O)C2CC2)ccc1C(=O)Nc1nnc(C#CC2CC2)s1 [Compound 222] |
| 0.87 | COc1cnc(C(F)F)cc1-c1cc(C#N)ncc1C(=O)Nc1nnc(C#CC2CC2)s1 [Compound 313] |
| < 0.25 | COc1cnc(C(F)F)cc1-c1cc(-n2nc3c(cc2=O)CCC3)ncc1C(=O)Nc1nnc(C#CC2CC2)s1 [Compound 462] |
| 0.33 | COc1cnc(C(F)F)cc1-c1cc(N2CCCCC2=O)ncc1C(=O)Nc1nnc(C#CC2CC2)s1 [Compound 192] |
| < 0.25 | COc1ccc(C(F)(F)F)cc1-c1cn(CC(N)=O)c(=O)cc1C(=O)Nc1nnc(C#CC2CC2)s1 [Compound 95] |
| 2.9 | COc1cnc(C(F)F)cc1-c1cc(N(C)C#N)ccc1C(=O)Nc1nnc(C#CC2CC2)s1 [Compound 203] |
| 0.25 | CNC(=O)Cn1cc(-c2cc(C(F)(F)F)ccc2OC)c(C(=O)Nc2nnc(C3CC3c3ccc(C#N)cc3)s2)cc1=O (stereo not shown) [Compound 92] |
| 0.25 | COc1cnc(C(F)F)cc1-c1cc(N2CCN3CCCC3C2=O)ncc1C(=O)Nc1nnc(C#CC2CC2)s1 (stereo not shown) [Compound 415] |
